Measurements taken from patent US20030108629A1, “Compositions and methods for prostate and kidney health and disorders, an herbal preparation” (priority 2001, published 2003).

Experiment: Case report: incontinence person with enlarged prostate
Format: in vivo, human
Conditions: prescribed for enlarged prostate
Source text: The 9-herb composition and Incontinence. Person diagnosed with having an enlarged prostate suffered from frequent-urination problems including increased daily frequency and reduced volume. They had the urge to urinate every two hours and the amount was only a few drops. Their symptoms were attributed to old age. […] They are able to urinate what they consider a normal amount of urine in a steady stream as opposed to the dribbling they experienced prior to taking the 9-herb composition. […] Because they are sleeping better, they have more energy throughout the day.

CC(C)(C)NC(=O)[C@H]1CC[C@H]2[C@@H]3CC[C@H]4NC(=O)C=C[C@]4(C)[C@H]3CC[C@]12C [PROSCAR]
effect on urination problem: did not alleviate the urination problem
